# Values of other authors, collected in US7132452B2, “Topical formulation having effects on alleviating pain/inflammation caused by herpes virus infection” (priority 2003, dated 2006).
row,SMILES,solubility in water
1,"O=C(c1ccccc1)c1ccc2n1CCC2C(=O)O (racemic) [ketorolac, (±)-5-benzoyl-2,3-dihydro-1H-pyrrolizine-1-carboxylic acid]",very low solubility in water
2,"O=C(O)Cc1ccccc1Nc1c(Cl)cccc1Cl [diclofenac, 2-(2,6-dichloro-anilino)-phenyl-acetic acid]",relatively low solubility in water
3,O=C(c1ccccc1)c1ccc2n1CCC2C(=O)O (stereo not drawn) [ketorolac tromethamine],much more water soluble than the free acid form of ketorolac
